The record followed here is ChEMBL document CHEMBL1201862, “PubChem BioAssay data set” (2004).

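Grown in 96-well plates, cells were treated for 48 hours with each compound at five concentrations. Insufficient inhibition: endpoint recorded as highest concentration tested. Abbreviation: GI50, concentration required for 50% inhibition of growth.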 Activity calls are given as the source filed them. No stated cut-off is given here; in the data, active = GI50 up to about 1.1 µM and inactive = higher.

What all share (experiment): NCI-60 cell line screen, 48 h
Assay [1] deals with A498.
The subject of assay [2] is CAKI-1.
The test system of assay [3] is HCT-15.
Assay [4] has as its system LOX IMVI.
In assay [5] the test system is MDA-MB-435.
Assay [6] relates to MDA-N.
Assay [7] relates to NCI-H23.
Assay [8] concerns NCI-H460.
Assay [9] has as its system OVCAR-3.
In assay [10] the test system is RPMI-8226.
The subject of assay [11] is SK-OV-3.
Assay [12] concerns SN12C.
Assay [13] has as its system SNB-19.
Assay [14] deals with SW-620.
For assay [15], the system named is U-251.
Assay [16] concerns UACC-62.
The test system of assay [17] is SF-539.

`c1cc(C2N3CCCN2CC3)ccn1` (stereo unspecified): the GI50 in assay [1] is > 100 µM (inactive); in assay [2], > 100 µM (inactive); in [3], over 100 µM; in [4], 57.9 µM (inactive); in assay [5] it was 25.5 µM (inactive); in [6], 35.1 µM (inactive). For the same molecule, the GI50 is 68.2 µM (inactive) in assay [7]; 83.6 µM (inactive) in [8]; 29.4 µM (inactive) in assay [9]; 24.1 µM (inactive) in [10]; > 100 µM (inactive) in assay [11]; 79.8 µM (inactive) in assay [12]. Also, the GI50 was > 100 µM (inactive) in assay [13], 41.8 µM (inactive) in [14], 58.3 µM (inactive) in assay [15] and > 100 µM (inactive) in assay [16].

Regarding `Cn1c(=O)c2nc(CCNC(=O)c3ccccc3)[nH]c2n(C)c1=O`, the GI50 in [1] was > 100 µM (inactive); in assay [2], > 100 µM (inactive); in assay [3] it was over 100 µM; in assay [4], > 100 µM (inactive); in assay [5] it was > 100 µM (inactive); in [6] it was > 100 µM (inactive). Besides, the GI50 in assay [7], in assay [8], in assay [9], in assay [12], in assay [13] and in assay [14] was > 100 µM (inactive) each time. Besides, the GI50 in assay [15] and in assay [16] was > 100 µM (inactive) throughout.

With `COc1ccc(N2C(=O)C3c4[nH]c5ccccc5c4C4c5ccccc5CC4C3C2=O)cc1` (stereo unspecified), the GI50 in assay [1] is > 100 µM (inactive); in assay [2] it was > 100 µM (inactive); in assay [3] it was over 100 µM; in assay [4], > 100 µM (inactive); in assay [5], > 100 µM (inactive); in [6] it was > 100 µM (inactive). The GI50 in assay [7], in [8], in assay [9], in assay [17], in assay [11] and in assay [12] was > 100 µM (inactive) in each case. Moreover, the GI50 in [13], in [14], in assay [15] and in [16] was > 100 µM (inactive) each time.

`NC(=O)C[S+]([O-])CC(N)C(=O)O` (stereo unspecified): the GI50 in [1] is > 100 µM (inactive); in assay [2] it was > 100 µM (inactive); in assay [3], over 100 µM; in [4], > 100 µM (inactive); in assay [5], > 100 µM (inactive); in assay [6], > 100 µM (inactive). In addition, the GI50 in assay [7], in assay [8], in [9], in [12], in [13] and in assay [14] was > 100 µM (inactive) throughout. For the same molecule, the GI50 in assay [15] and in assay [16] was > 100 µM (inactive) throughout.

In the case of `Brc1ccc2c3c1[C@H]1O[C@H]1c1cccc(c1-3)[C@@H]1O[C@H]21`, the GI50 in assay [1] is 21.2 µM (inactive); in [2] it was 17.8 µM (inactive); in assay [3], 21.3 µM; in assay [4], 2.82 µM (inactive); in assay [5], 15 µM (inactive); in assay [6] it was 16.9 µM (inactive). Further, the GI50 in assay [7] was 17.8 µM (inactive); in assay [11], 19.1 µM (inactive); in [12], 17.6 µM (inactive); in assay [13] it was 18 µM (inactive); in assay [15], 14 µM (inactive); in [16], 16.8 µM (inactive).

`CCN1CCC(CNC(=O)c2ccc(N)cc2)N1CC` (stereo unspecified): the GI50 in assay [1] is > 100 µM (inactive); in [2], > 100 µM (inactive); in assay [3] it was over 100 µM; in [5], > 100 µM (inactive); in assay [6], > 100 µM (inactive); in [7], > 100 µM (inactive). Moreover, the GI50 in [8], in assay [9], in [10], in assay [17], in assay [11] and in [12] was > 100 µM (inactive) throughout. The GI50 in assay [13], in assay [14], in [15] and in assay [16] was > 100 µM (inactive) in each case.

On to `Cc1ccccc1NC(=O)C(=O)CC(=O)c1sc(Nc2ccccc2[N+](=O)[O-])nc1C`, for which the GI50 in assay [2] was 28.4 µM (inactive); in assay [3] it was 52.4 µM; in [4], 37.4 µM (inactive); in [5] it was 29 µM (inactive); in assay [6] it was 35.7 µM (inactive); in assay [7] it was 36.8 µM (inactive). In addition, the GI50 was 27.4 µM (inactive) in assay [8]; 32 µM (inactive) in assay [9]; 27.9 µM (inactive) in [10]; 29.9 µM (inactive) in assay [17]; 25.2 µM (inactive) in assay [11]; 50.6 µM (inactive) in assay [12]. The GI50 in assay [13] is 34.7 µM (inactive); in [14] it was 36.1 µM (inactive); in assay [15], 30.3 µM (inactive); in [16] it was 18.2 µM (inactive).

Regarding `CCOC(=O)c1c(-c2ccc(OC)cc2)c(C#N)c(=S)n(C2OC(CO)C(O)C(O)C2O)c1C` (stereo unspecified), the GI50 was > 100 µM (inactive) in [1]; 87.7 µM (inactive) in assay [2]; over 100 µM in [3]; > 100 µM (inactive) in assay [4]; > 100 µM (inactive) in assay [5]; > 100 µM (inactive) in assay [6]. For the same molecule, the GI50 in [7], in assay [9], in assay [17], in assay [11], in assay [12] and in assay [13] was > 100 µM (inactive) in each case. Further, the GI50 in assay [14] and in assay [15] was > 100 µM (inactive) in each case.

Turning to `c1ccc(C2CC(N3CCOCC3)=Nc3ccccc3N2)cc1` (stereo unspecified), the GI50 in assay [1] is > 100 µM (inactive); in [2] it was > 100 µM (inactive); in assay [3], over 100 µM; in [5], 54.3 µM (inactive); in assay [6], > 100 µM (inactive); in [7] it was > 100 µM (inactive). The GI50 was > 100 µM (inactive) in assay [8]; > 100 µM (inactive) in assay [9]; 43.9 µM (inactive) in assay [10]; > 100 µM (inactive) in assay [17]; > 100 µM (inactive) in assay [11]; > 100 µM (inactive) in assay [12]. For the same molecule, the GI50 in assay [13], in assay [14], in assay [15] and in assay [16] was > 100 µM (inactive) throughout.

Turning to `C=CC1(O)CCCC=C1COCc1ccccc1` (stereo unspecified), the GI50 was > 100 µM (inactive) in [1]; > 100 µM (inactive) in [2]; 65.8 µM in assay [3]; 18.8 µM (inactive) in [4]; 47.5 µM (inactive) in assay [5]; 73.8 µM (inactive) in [6]. The GI50 was 98.6 µM (inactive) in assay [7]; > 100 µM (inactive) in [8]; 23.8 µM (inactive) in assay [10]; > 100 µM (inactive) in assay [11]; 70 µM (inactive) in [12]; > 100 µM (inactive) in assay [13]. Besides, the GI50 in assay [15] and in [16] was > 100 µM (inactive) in each case.

Take `CC(N)C(C)Cc1ccccc1` (stereo unspecified): the GI50 in [1] is > 100 µM (inactive); in [2], > 100 µM (inactive); in assay [3] it was over 100 µM; in assay [4], > 100 µM (inactive); in assay [5], > 100 µM (inactive); in assay [6] it was > 100 µM (inactive). Also, the GI50 in assay [7], in assay [8], in assay [9], in [10], in [11] and in assay [12] was > 100 µM (inactive) in each case. In addition, the GI50 in [13], in assay [14], in assay [15] and in assay [16] was > 100 µM (inactive) throughout.

Take `CC1C2C=CC1C(c1c3ccc(=O)c(O)c-3oc3c(O)c(O)ccc13)C2C(=O)O` (stereo unspecified): the GI50 in assay [1] was > 100 µM (inactive); in assay [2], > 100 µM (inactive); in [3], 47.2 µM; in assay [4], 20.9 µM (inactive); in assay [5], 19.6 µM (inactive); in assay [6], 21.4 µM (inactive). Moreover, the GI50 is 35.6 µM (inactive) in assay [7]; > 100 µM (inactive) in assay [8]; > 100 µM (inactive) in [9]; 23.2 µM (inactive) in [10]; > 100 µM (inactive) in [11]; 24 µM (inactive) in assay [12]. The GI50 was > 100 µM (inactive) in [13], 34.3 µM (inactive) in assay [14], 36.5 µM (inactive) in assay [15] and > 100 µM (inactive) in assay [16].

Regarding `CN(C)c1cccc2c(S(=O)(=O)NCCN)cccc12` [DANSYL ETHYLENEDIAMINE], the GI50 in assay [1] was 23 µM (inactive); in assay [2], > 100 µM (inactive); in assay [3], over 100 µM; in [4] it was > 100 µM (inactive); in assay [5] it was > 100 µM (inactive); in assay [6], > 100 µM (inactive). Also, the GI50 in assay [7], in [8], in assay [9], in assay [17], in assay [11] and in assay [12] was > 100 µM (inactive) in each case. Further, the GI50 in assay [13], in assay [14], in assay [15] and in [16] was > 100 µM (inactive) in each case.
